Results published in publication PMC4097363, “Trace amines inhibit insect odorant receptor function through antagonism of the co-receptor subunit” (F1000Research, 2014).
Entries after “also recorded” stand apart in the source; their conditions may differ.

How the values were obtained:
Assay in all cases: Inhibition of odorant activation of heteromeric OR in Xenopus oocytes
Agam\Orco+Agam\Or65 = Agam\Orco+Agam\Or65 (Anopheles gambiae, UniProt Q7QCC7); type: cell-based; settings: for IC50: IC 50 for inhibition of responses to eugenol; for inhibition of odorant activation of the OR: activated by 100nM eugenol, 10µM tryptamine or 100µM tyramine
Protocol: (§1) Follicle cells were removed by treatment with collagenase B (Boehringer Mannheim) for 2 hours at room temperature. Capped cRNA encoding each OR subunit was generated using mMessage mMachine kits (Ambion). For heteromeric ORs, 25 ng of cRNA encoding each OR subunit was injected into Stage V-VI Xenopus oocytes. For expression of Orco homomers, 50 ng of cRNA was injected. Oocytes were incubated at 18°C in Barth's saline (in mM: 88 NaCl, 1 KCl, 2.4 NaHCO 3, 0.3 CaNO 3, 0.41 CaCl 2, 0.82 MgSO 4, 15 HEPES, pH 7.6, and 150µg/ml ceftazidime) for 2–5 days prior to electrophysiological recording.
(§2) Odorant and Orco ligand induced currents were recorded under two-electrode voltage clamp, using an automated parallel electrophysiology system (OpusExpress 6000A, Molecular Devices). Oocytes were perfused with ND96 (in mM: 96 NaCl, 2 KCl, 1 CaCl 2, 1 MgCl 2, 5 HEPES, pH 7.5). Orco ligands were prepared as 50 or 100 mM stock solutions in DMSO and then diluted into ND96 on the day of the experiment. Odorants were prepared as 100 mM stock solutions in DMSO and then diluted into ND96. Unless otherwise noted, applications were for 60 sec at a flow rate of 1.0 ml/min, with extensive washing in ND96 at 4.6 ml/min between applications. Micropipettes were filled with 3 M KCl and had resistances of 0.2–2.0 MΩ. The holding potential was -70 mV. Current responses, filtered (4-pole, Bessel, low pass) at 20 Hz (-3 db) and sampled at 100 Hz, were captured and stored using OpusXpress 1.1 software (Molecular Devices).
(§3) To measure inhibition of odorant activation of heteromeric ORs ( Figures 4B, 4C, Figure 5B and Figure 6), oocytes were exposed to a 30 sec application of odorant followed by a 10 min wash. Oocytes were then exposed to a 90 sec application of tryptamine or tyramine, immediately followed by a 30 sec co-application of tryptamine or tyramine and odorant. The current response in the presence of antagonist candidate was compared to the preceding response to odorant alone and expressed as a percentage. […] For this reason, we then re-normalized antagonism data to the value obtained when the assay was run in the absence of antagonist candidate (sham). In the “sham” assay, oocytes were exposed to a 30 sec application of odorant followed by a 10 min wash and then exposed to a 90 sec application of ND96 (no antagonist candidate), immediately followed by a 30 sec application of odorant. The second odorant response was compared to the first response and expressed as a percentage. In Figure 4B, 4C, Figure 5B and Figure 6, the sham value for 100nM eugenol was 57 ± 3% (mean ± SEM, n = 3). In Figure 5B, the sham value for 10nM eugenol was 93 ± 4% (n = 4). In Figure 4B and C, the sham value for 1µM Z11-14:OAc was 82 ± 6% (n = 6) and the sham value for 150µM 2-phenylethanol was 92 ± 2% (n = 3). In Figure 6, the sham value for 3µM L-fenchone was 83 ± 1% (n = 3), the sham value for 40µM acetophenone was 92 ± 1% (n = 3), the sham value for 70µM geranyl acetate was 97 ± 1% (n = 3), the sham value for 10µM 6-methyl-5-hepten-2-one was 94 ± 2% (n = 3) and the sham value for 3µM 2-nonanone was 81 ± 1% (n = 3).
Initial analysis of electrophysiological data was done using Clampfit 9.1 software (Molecular Devices). Curve fitting and statistical analyses were done using Prism 5 (Graphpad). […]

Onub\Orco+Onub\Or6 = type: cell-based, Ostrinia nubilalis; settings: activated by 1µM Z11-14:OAc; 10µM tryptamine or 100µM tyramine
Protocol: as §1
as §2, with “Current responses, filtered (4-pole, Bessel, low pass) at 20 Hz (-3 db) and sampled at 100 Hz, were captured and stored using OpusXpress 1.1 software (Molecular Devices).” left out

Mcar\Orco+Mcar\Or5 = type: cell-based, Megacyllene caryae; settings: activated by 150µM 2-phenylethanol; 10µM tryptamine or 100µM tyramine
Protocol: as §1
as §2, with “Current responses, filtered (4-pole, Bessel, low pass) at 20 Hz (-3 db) and sampled at 100 Hz, were captured and stored using OpusXpress 1.1 software (Molecular Devices).” left out

Agam\Orco+Agam\Or27 = type: cell-based, Anopheles gambiae; settings: activated by 3µM L-fenchone; 10µM tryptamine or 100µM tyramine
Protocol: as §1, §2, §3

Agam\Orco+Agam\Or28 = type: cell-based, Anopheles gambiae; settings: activated by 40µM acetophenone; 10µM tryptamine or 100µM tyramine
Protocol: as §1, §2, §3

Agam\Orco+Agam\Or31 = type: cell-based, Anopheles gambiae; settings: activated by 70µM geranyl acetate; 10µM tryptamine or 100µM tyramine
Protocol: as §1, §2, §3

Agam\Orco+Agam\Or39 = type: cell-based, Anopheles gambiae; settings: activated by 10µM 6-methyl-5-hepten-2-one; 10µM tryptamine or 100µM tyramine
Protocol: as §1, §2, §3

Agam\Orco+Agam\Or48 = biological target: T1, Agam\Orco+Agam\Or48 (Anopheles gambiae, UniProt Q7QCC7); type: cell-based; settings: activated by 3µM 2-nonanone; 10µM tryptamine or 100µM tyramine
T1 sequence (Q7QCC7 1-478): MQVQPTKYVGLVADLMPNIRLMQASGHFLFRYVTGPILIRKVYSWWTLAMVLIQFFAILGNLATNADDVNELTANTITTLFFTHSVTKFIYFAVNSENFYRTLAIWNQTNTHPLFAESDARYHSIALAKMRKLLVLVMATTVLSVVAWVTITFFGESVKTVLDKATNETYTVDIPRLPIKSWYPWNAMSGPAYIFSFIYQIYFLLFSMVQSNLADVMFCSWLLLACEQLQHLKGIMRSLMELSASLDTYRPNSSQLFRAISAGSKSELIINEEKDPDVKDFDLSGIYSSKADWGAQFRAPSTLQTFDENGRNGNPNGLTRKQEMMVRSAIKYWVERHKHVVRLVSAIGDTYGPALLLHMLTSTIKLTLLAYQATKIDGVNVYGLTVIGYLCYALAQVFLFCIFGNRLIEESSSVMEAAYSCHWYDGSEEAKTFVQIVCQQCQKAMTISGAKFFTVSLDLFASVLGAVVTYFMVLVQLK
Protocol: as §1
as §2, with “Current responses, filtered (4-pole, Bessel, low pass) at 20 Hz (-3 db) and sampled at 100 Hz, were captured and stored using OpusXpress 1.1 software (Molecular Devices).” left out

Compound	mechanism of inhibition of odorant activation (Agam\Orco+Agam\Or65; Agam\Orco+Agam\Or65, 10nM vs 100nM eugenol)	IC50 (Agam\Orco+Agam\Or65; Agam\Orco+Agam\Or65, 10nM eugenol) [µM]	IC50 (Agam\Orco+Agam\Or65; Agam\Orco+Agam\Or65, 100nM eugenol) [µM]	inhibition of odorant activation of the OR (Agam\Orco+Agam\Or65)	inhibition of odorant activation of the OR (Onub\Orco+Onub\Or6)	inhibition of odorant activation of the OR (Mcar\Orco+Mcar\Or5)	inhibition of odorant activation of the OR (Agam\Orco+Agam\Or27)	inhibition of odorant activation of the OR (Agam\Orco+Agam\Or28)	inhibition of odorant activation of the OR (Agam\Orco+Agam\Or31)	inhibition of odorant activation of the OR (Agam\Orco+Agam\Or39)	inhibition of odorant activation of the OR (Agam\Orco+Agam\Or48)
NCCc1c[nH]c2ccccc12 [tryptamine]	non-competitively inhibits odorant activation	3.1 ± 0.4	3.2 ± 0.3	substantial inhibition of each receptor; also recorded: able to inhibit odorant activation of the receptor	substantial inhibition of each receptor	substantial inhibition of each receptor	able to inhibit odorant activation of the receptor	able to inhibit odorant activation of the receptor	able to inhibit odorant activation of the receptor	able to inhibit odorant activation of the receptor	able to inhibit odorant activation of the receptor
NCCc1ccc(O)cc1 [tyramine]	–	–	–	able to reduce odorant activation of these ORs, but was less effective than tryptamine; also recorded: able to inhibit odorant activation of each of these receptors, but was less effective than tryptamine	able to reduce odorant activation of these ORs, but was less effective than tryptamine	able to reduce odorant activation of these ORs, but was less effective than tryptamine	able to inhibit odorant activation of each of these receptors, but was less effective than tryptamine	able to inhibit odorant activation of each of these receptors, but was less effective than tryptamine	able to inhibit odorant activation of each of these receptors, but was less effective than tryptamine	able to inhibit odorant activation of each of these receptors, but was less effective than tryptamine	able to inhibit odorant activation of each of these receptors, but was less effective than tryptamine
